Laboratory results as given in patent publication US6540976B1, “Method for reducing radiation toxicity” (The Board of Trustees of the University of Arkansas, priority 1997, dated 2003).

Legend:
[1] = test system: radiation enteropathy (irradiated small bowel); test: Rat small bowel radiation enteropathy model, single dose irradiation; format: in vivo, rats
Description: A 4-cm segment of distal ileum was sutured to the inside of the scrotum in orchiectomized male rats, thus forming an artificial “scrotal hernia”. The afferent bowel was divided 10 cm proximal to the “hernia”, an end ileostomy was prepared, and intestinal continuity was restored by end-to-side anastomosis. The intestine in the “hernia” was subsequently exposed to 0, 18, or 21 Gy single dose, or 8 daily fractions of 5.6 Gy (total dose 44.8 Gy), external beam X-irradiation. […] Mucosal injury was monitored non-invasively by assessment of granulocyte marker protein (GMP) excretion. Irradiated and shielded intestine were procured 2 weeks after irradiation and assessed for structural changes by histopathologic scoring, and for TGF-β, IL-1α, and ED-2 macrophage antigen immunoreactivity. Radiation injury scores are Ad the sum of 7 different histopathologic parameters graded according to severity. Intestinal wall thickness was measured with light microscopy and a stage micrometer. Intestinal wall TGF-β immunoreactivity levels were measured with computerized image analysis, and the number of ED-2 positive cells (macrophages) were counted with a light microscope and fields were determined according to a predetermined grid pattern.

T-cell = conditions: cited from earlier work
neutrophils = conditions: cited from earlier work
mononuclear cells = conditions: cited from earlier work
[2] = in vivo; cited from earlier work
[3] = test system: radiation enteropathy (irradiated small bowel); test: Rat small bowel radiation enteropathy model, fractionated radiation; format: in vivo, rats; conditions: 8 x 5.6 Gy, 30 mg/kg q.d. for 14 days
Description: A 4-cm segment of distal ileum was sutured to the inside of the scrotum in orchiectomized male rats, thus forming an artificial “scrotal hernia”. The afferent bowel was divided 10 cm proximal to the “hernia”, an end ileostomy was prepared, and intestinal continuity was restored by end-to-side anastomosis. The intestine in the “hernia” was subsequently exposed to 0, 18, or 21 Gy single dose, or 8 daily fractions of 5.6 Gy (total dose 44.8 Gy), external beam X-irradiation. Orazipone or vehicle was injected through the stoma from 3 days prior to 2 weeks after irradiation. Mucosal injury was monitored non-invasively by assessment of granulocyte marker protein (GMP) excretion. Irradiated and shielded intestine were procured 2 weeks after irradiation and assessed for structural changes by histopathologic scoring, and for TGF-β, IL-1α, and ED-2 macrophage antigen immunoreactivity. Radiation injury scores are Ad the sum of 7 different histopathologic parameters graded according to severity. Intestinal wall thickness was measured with light microscopy and a stage micrometer. Intestinal wall TGF-β immunoreactivity levels were measured with computerized image analysis, and the number of ED-2 positive cells (macrophages) were counted with a light microscope and fields were determined according to a predetermined grid pattern.
To evaluate the effects of Orazipone following fractionated radiation, the transposed loop of small bowel was exposed to sham-irradiation or 8 daily fractions of 5.6 Gy (total dose 44.8 Gy). Orazipone (30 mg/kg q.d.) or vehicle was delivered for 14 days in 2 separate experimental groups. Group 1 received the drug during and after irradiation (radiation day 2 through post-radiation day 7), while Group 2 received the drug only after irradiation (post-radiation days 0 through 13). All animals were euthanized on post-radiation day 14.

[4] = single dose irradiation, vs vehicle-treated controls, p<0.01
[5] = given either during or after irradiation

SMILES: CC(=O)C(=Cc1ccc(S(C)(=O)=O)cc1)C(C)=O [Orazipone]
- TGF-β overexpression ([1]; 30 mg/kg daily for 1 week after a single dose of 21 Gy): significantly attenuated
- frequency of subacute severe small bowel radiation toxicity ([1]; 30 mg/kg daily for 1 week after a single dose of 21 Gy, reduced from 80% (control)): 25%
- GMP excretion ([1]; single dose irradiation): not significantly affected
- macrophage accumulation ([1]; single dose irradiation): not significantly affected
- extracellular matrix-associated TGF-β immunoreactivity [1, 4]: less
- histopathologic injury of irradiated intestine [1, 4]: less
- intestinal wall thickening ([1]; single dose irradiation, vs vehicle-treated controls, p<0.05): less
- IL-1α positive cells ([1]; single dose irradiation, vs vehicle-treated controls, p=0.05): less
- T-cell proliferation and IL-2 release (T-cell): reduces
- NADPH oxidase and LTB4 production by neutrophils (neutrophils): suppresses
- release of IL-1α, IL-1β and TNFα from mononuclear cells (mononuclear cells): inhibits
- fate of absorbed drug (metabolism) [2]: broken down into inactive metabolites very quickly
- subacute radiation enteropathy as assessed by Radiation Injury Score [3, 5]: significantly ameliorated
- subacute radiation enteropathy as assessed by extracellular matrix-associated TGF-β immunoreactivity [3, 5]: significantly ameliorated
- subacute radiation enteropathy as assessed by intestinal wall thickness [3, 5]: significantly ameliorated
- extent of mucosal injury (mucosal surface area measurements) ([3]; among the treatment groups): did not differ
